Results taken from patent publication US8222404B2, “[1,2,4]Thiadiazin-3-yl acetic acid compound and methods of making the acetic acid compound” (Anadys Pharmaceuticals, Inc., priority 2008, dated 2012).

The compounds below were run on HCV Huh-luc/neo-ET replicon cells (assay: Luciferase-Based HCV Replicon Assay (EC50 (1b))). Conditions: Hepatitis C virus, 72 hours exposure, luciferase activity.
Assay type: cell-based
How it was run: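 EC50 (1b) derived from % inhibition of luciferase signal relative to untreated cells, background set by 100 nM BILN-2061 (protease inhibitor). Triplicate dose series added to replicon cells 24 h post-seeding; luminescence measured after 72 h compound exposure.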
In the case of `CS(=O)(=O)NCc1csc2c1S(=O)(=O)N=C(C1=C(O)[C@@H]3CCC[C@@H]3N(CC3CCCCC3)C1=O)N2` [Example 103, (4aR,7aS)-N-[3-(1-Cyclohexylmethyl-4-hydroxy-2-oxo-2,4a,5,6,7,7a-hexahydro-1H-[1]pyrindin-3-yl)-1,1-dioxo-1,4-dihydro-1λ^6-thieno[2,3-e][1,2,4]thiadiazin-7-ylmethyl]-methanesulfonamide], the EC50 is reported as 20 to 100 nM. `CS(=O)(=O)NCc1csc2c1S(=O)(=O)N=C(C1=C(O)[C@@H]3[C@H]4CC[C@H](C4)[C@@H]3N(CCC3CC3)C1=O)N2` [Example 106, N-{3-[(1R,2S,7R,8S)-3-(2-Cyclopropyl-ethyl)-6-hydroxy-4-oxo-3-aza-tricyclo[6.2.1.0^2,7]undec-5-en-5-yl]-1,1-dioxo-1,4-dihydro-1λ^6-thieno[2,3-e][1,2,4]thiadiazin-7-ylmethyl}-methanesulfonamide] was tested, and the EC50 was 5 to 20 nM. With `CS(=O)(=O)NCc1csc2c1S(=O)(=O)N=C(C1=C(O)[C@@H]3[C@@H]4CC[C@@H](C4)[C@@H]3N(CCC3CC3)C1=O)N2` [Example 107, N-{3-[(1S,2S,7R,8R)-3-(2-Cyclopropyl-ethyl)-6-hydroxy-4-oxo-3-aza-tricyclo[6.2.1.0^2,7]undec-5-en-5-yl]-1,1-dioxo-1,4-dihydro-1λ^6-thieno[2,3-e][1,2,4]thiadiazin-7-ylmethyl}-methanesulfonamide] the EC50 was 20 to 100 nM. `CS(=O)(=O)NCc1csc2c1S(=O)(=O)N=C(C1=C(O)C3C4CCC(CC4)C3N(CCC3CC3)C1=O)N2` (centres unmarked) [Example 108, N-{3-[3-(2-Cyclopropyl-ethyl)-6-hydroxy-4-oxo-3-aza-tricyclo[6.2.2.0^2,7]dodec-5-en-5-yl]-1,1-dioxo-1,4-dihydro-1λ^6-thieno[2,3-e][1,2,4]thiadiazin-7-ylmethyl}-methanesulfonamide] gave an EC50 of 5 to 20 nM. `CC1(CCN2C(=O)C(C3=NS(=O)(=O)c4c(CNS(C)(=O)=O)csc4N3)=C(O)C3C4CCC(CC4)C32)CC1` (centres unmarked) [Example 109, N-(3-{6-Hydroxy-3-[2-(1-methyl-cyclopropyl)-ethyl]-4-oxo-3-aza-tricyclo[6.2.2.0^2,7]dodec-5-en-5-yl]-1,1-dioxo-1,4-dihydro-1λ^6-thieno[2,3-e][1,2,4]thiadiazin-7-ylmethyl)-methanesulfonamide] gave an EC50 of 5 to 20 nM. With `CS(=O)(=O)NCc1csc2c1S(=O)(=O)N=C(C1=C(O)[C@@H]3CCC[C@@H]3N(Cc3ccc(F)cc3)C1=O)N2` [Example 110, (4aR,7aS)-N-{3-[1-(4-Fluoro-benzyl)-4-hydroxy-2-oxo-2,4a,5,6,7,7a-hexahydro-1H-[1]pyrindin-3-yl]-1,1-dioxo-1,4-dihydro-1λ^6-thieno[2,3-e][1,2,4]thiadiazin-7-ylmethyl}-methanesulfonamide] the EC50 was 5 to 20 nM. For `CS(=O)(=O)NCc1csc2c1S(=O)(=O)N=C(C1=C(O)[C@@H]3CCC[C@@H]3N(Cc3ccc(F)cc3Cl)C1=O)N2` [Example 111, (4aR,7aS)-N-{3-[1-(2-Chloro-4-fluoro-benzyl)-4-hydroxy-2-oxo-2,4a,5,6,7,7a-hexahydro-1H-[1]pyrindin-3-yl]-1,1-dioxo-1,4-dihydro-1λ^6-thieno[2,3-e][1,2,4]thiadiazin-7-ylmethyl}-methanesulfonamide], the EC50 was 100 to 1000 nM. Compound `CS(=O)(=O)NCc1csc2c1S(=O)(=O)N=C(C1=C(O)[C@@H]3CCC[C@@H]3N(Cc3ccc(F)cc3F)C1=O)N2` [Example 112, (4aR,7aS)-N-{3-[1-(2,4-Difluoro-benzyl)-4-hydroxy-2-oxo-2,4a,5,6,7,7a-hexahydro-1H-[1]pyrindin-3-yl]-1,1-dioxo-1,4-dihydro-1λ^6-thieno[2,3-e][1,2,4]thiadiazin-7-ylmethyl}-methanesulfonamide] has an EC50 of 20 to 100 nM. Compound `CS(=O)(=O)NCc1csc2c1S(=O)(=O)N=C(C1=C(O)[C@@H]3CCC[C@@H]3N(Cc3ccc(F)c(Cl)c3)C1=O)N2` [Example 113, (4aR,7aS)-N-{3-[1-(3-Chloro-4-fluoro-benzyl)-4-hydroxy-2-oxo-2,4a,5,6,7,7a-hexahydro-1H-[1]pyrindin-3-yl]-1,1-dioxo-1,4-dihydro-1λ^6-thieno[2,3-e][1,2,4]thiadiazin-7-ylmethyl}-methanesulfonamide] has an EC50 of 20 to 100 nM. `COc1cc(CN2C(=O)C(C3=NS(=O)(=O)c4c(CNS(C)(=O)=O)csc4N3)=C(O)[C@@H]3CCC[C@@H]32)ccc1F` [Example 114, (4aR,7aS)-N-{3-[1-(4-Fluoro-3-methoxy-benzyl)-4-hydroxy-2-oxo-2,4a,5,6,7,7a-hexahydro-1H-[1]pyrindin-3-yl]-1,1-dioxo-1,4-dihydro-1λ^6-thieno[2,3-e][1,2,4]thiadiazin-7-ylmethyl}-methanesulfonamide] gave an EC50 of 100 to 1000 nM. `CS(=O)(=O)NCc1csc2c1S(=O)(=O)N=C(C1=C(O)[C@@H]3CCC[C@@H]3N(Cc3ccc(F)c(F)c3F)C1=O)N2` [Example 115, (4aR,7aS)-N-{3-[4-Hydroxy-2-oxo-1-(2,3,4-trifluoro-benzyl)-2,4a,5,6,7,7a-hexahydro-1H-[1]pyrindin-3-yl]-1,1-dioxo-1,4-dihydro-1λ^6-thieno[2,3-e][1,2,4]thiadiazin-7-ylmethyl}-methanesulfonamide] showed an EC50 of 100 to 1000 nM. `CS(=O)(=O)NCc1csc2c1S(=O)(=O)N=C(C1=C(O)[C@@H]3CCC[C@@H]3N(Cc3ccccc3)C1=O)N2` [Example 124, (4aR,7aS)-N-[3-(1-Benzyl-4-hydroxy-2-oxo-2,4a,5,6,7,7a-hexahydro-1H-[1]pyrindin-3-yl)-1,1-dioxo-1,4-dihydro-1λ^6-thieno[2,3-e][1,2,4]thiadiazin-7-ylmethyl]-methanesulfonamide] showed an EC50 of 5 to 20 nM. `CS(=O)(=O)NCc1csc2c1S(=O)(=O)N=C(C1=C(O)[C@@H]3CCC[C@@H]3N(Cc3ccc(F)c(F)c3)C1=O)N2` [Example 125, (4aR,7aS)-N-{3-[1-(3,4-Difluoro-benzyl)-4-hydroxy-2-oxo-2,4a,5,6,7,7a-hexahydro-1H-[1]pyrindin-3-yl]-1,1-dioxo-1,4-dihydro-1λ^6-thieno[2,3-e][1,2,4]thiadiazin-7-ylmethyl}-methanesulfonamide] was tested, and the EC50 was 20 to 100 nM. Compound `Cc1cc(CN2C(=O)C(C3=NS(=O)(=O)c4c(CNS(C)(=O)=O)csc4N3)=C(O)[C@@H]3CCC[C@@H]32)ccc1F` [Example 126, (4aR,7aS)-N-{3-[1-(4-Fluoro-3-methyl-benzyl)-4-hydroxy-2-oxo-2,4a,5,6,7,7a-hexahydro-1H-[1]pyrindin-3-yl]-1,1-dioxo-1,4-dihydro-1λ^6-thieno[2,3-e][1,2,4]thiadiazin-7-ylmethyl}-methanesulfonamide] has an EC50 of 20 to 100 nM. `CS(=O)(=O)NCc1csc2c1S(=O)(=O)N=C(C1=C(O)[C@@H]3CCC[C@@H]3N(Cc3ccsc3)C1=O)N2` [Example 127, (4aR,7aS)-N-[3-(4-Hydroxy-2-oxo-1-thiophen-3-ylmethyl-2,4a,5,6,7,7a-hexahydro-1H-[1]pyrindin-3-yl)-1,1-dioxo-1,4-dihydro-1λ^6-thieno[2,3-e][1,2,4]thiadiazin-7-ylmethyl]-methanesulfonamide] gave an EC50 of 5 to 20 nM. `CC(C)CCN1C(=O)C(C2=NS(=O)(=O)c3c(CNS(C)(=O)=O)csc3N2)=C(O)[C@@H]2CCC[C@@H]21` [Example 128, (4aR,7aS)-N-{3-[4-Hydroxy-1-(3-methyl-butyl)-2-oxo-2,4a,5,6,7,7a-hexahydro-1H-[1]pyrindin-3-yl]-1,1-dioxo-1,4-dihydro-1λ^6-thieno[2,3-e][1,2,4]thiadiazin-7-ylmethyl}-methanesulfonamide] showed an EC50 of 20 to 100 nM. In the case of `CC(C)(C)CCN1C(=O)C(C2=NS(=O)(=O)c3c(CNS(C)(=O)=O)csc3N2)=C(O)[C@@H]2CCC[C@@H]21` [Example 129, (4aR,7aS)-N-{3-[1-(3,3-Dimethyl-butyl)-4-hydroxy-2-oxo-2,4a,5,6,7,7a-hexahydro-1H-[1]pyrindin-3-yl]-1,1-dioxo-1,4-dihydro-1λ^6-thieno[2,3-e][1,2,4]thiadiazin-7-ylmethyl}-methanesulfonamide], the EC50 is reported as 5 to 20 nM.
